# From US20260297060A1, “COMPOUNDS FOR THE DEGRADATION OF MUTANT BRAF” (C4 THERAPEUTICS, INC., priority 2023, published 2026)
# Like-named read-outs stand apart in the source and are kept apart here.
# Assay: Pharmacokinetics in female BALB/c nude mice bearing A375 xenografts, 1 day dosing (PK and PD study): plasma, tumor and brain concentrations, AUC
# Assay type: in vivo
# Conditions: mouse, po
# From the text: The concentrations of Dabrafenib, Compound 26 and Compound 141 in the treatment of female BALB/c nude mice bearing A375 xenografts are shown in Table 62-Table 72 and FIG. 52-FIG. 73.
# [1] = plasma, 3 mg/kg, 3 mg/kg p.o. BID × 1 day, post 1st dose, read-out: Mean Concentration in Plasma ± SEM
# [2] = plasma, 3 mg/kg, 3 mg/kg p.o. BID × 1 day, post 2nd dose, read-out: Mean Concentration in Plasma ± SEM
# [3] = plasma, 6 mg/kg, 6 mg/kg p.o. QD × 1 day, read-out: Mean Concentration in Plasma ± SEM
# [4] = plasma, 10 mg/kg, 10 mg/kg p.o. BID × 1 day, post 1st dose, read-out: Mean Concentration in Plasma ± SEM
# [5] = plasma, 10 mg/kg, 10 mg/kg p.o. BID × 1 day, post 2nd dose, read-out: Mean Concentration in Plasma ± SEM
# [6] = tumor, 1.5 mg/kg, 1.5 mg/kg p.o. BID × 1 day, post 2nd dose, read-out: Mean Concentration in Tumor ± SEM
# [7] = tumor, 2 mg/kg, 2 mg/kg p.o. TID × 1 day, post 3rd dose, read-out: Mean Concentration in Tumor ± SEM
# [8] = tumor, 3 mg/kg, 3 mg/kg p.o. BID × 1 day, post 2nd dose, read-out: Mean Concentration in Tumor ± SEM
# [9] = tumor, 6 mg/kg, 6 mg/kg p.o. QD × 1 day, read-out: Mean Concentration in Tumor ± SEM
# [10] = tumor, 10 mg/kg, 10 mg/kg p.o. BID × 1 day, post 2nd dose, read-out: Mean Concentration in Tumor ± SEM
compound,measurement,setting,value
"CCN(C)S(=O)(=O)Nc1ccc(F)c(Oc2ccc3ncn([C@H]4COC5(CCN(C6CC7(C6)CN(c6cc8c(cc6F)c(N6CCC(=O)NC6=O)nn8C)C7)CC5)C4)c(=O)c3c2)c1C#N [Compound 26, (3R)-3-[6-[2-cyano-3-[[ethyl(methyl)sulfamoyl]amino]-6-fluoro-phenoxy]-4-oxo-quinazolin-3-yl]-8-[2-[3-(2,4-dioxohexahydropyrimidin-1-yl)-5-fluoro-1-methyl-indazol-6-yl]-2-azaspiro[3.3]heptan-6-yl]-1-oxa-8-azaspiro[4.5]decane]",concentration at 2 h,[1],6910 ± 1450 ng/mL
same,concentration at 4 h,[1],3060 ± 172 ng/mL
same,concentration at 8 h,[1],645 ± 24.7 ng/mL
same,concentration at 12 h,[1],527 ± 130 ng/mL
same,concentration at 0.25 h,[2],1380 ± 113 ng/mL
same,concentration at 0.5 h,[2],2880 ± 325 ng/mL
same,concentration at 1 h,[2],4920 ± 1060 ng/mL
same,concentration at 2 h,[2],5290 ± 1110 ng/mL
same,concentration at 4 h,[2],2590 ± 422 ng/mL
same,concentration at 10 h,[2],1500 ± 194 ng/mL
same,concentration at 24 h,[2],20.5 ± 4.61 ng/mL
same,concentration at 36 h,[2],1.58 ng/mL
same,concentration at 48 h,[2],0.968 ± 0.0751 ng/mL
same,concentration at 0.25 h,[3],3250 ± 159 ng/mL
same,concentration at 0.5 h,[3],7680 ± 353 ng/mL
same,concentration at 1 h,[3],15200 ± 186 ng/mL
same,concentration at 2 h,[3],11600 ± 1450 ng/mL
same,concentration at 4 h,[3],6670 ± 1110 ng/mL
same,concentration at 8 h,[3],5720 ± 1940 ng/mL
same,concentration at 10 h,[3],3110 ± 682 ng/mL
same,concentration at 24 h,[3],185 ± 109 ng/mL
same,concentration at 36 h,[3],3.87 ± 0.735 ng/mL
same,concentration at 48 h,[3],1.07 ng/mL
same,concentration at 0.25 h,[4],7140 ± 1960 ng/mL
same,concentration at 0.5 h,[4],17400 ± 1470 ng/mL
same,concentration at 1 h,[4],25400 ± 10500 ng/mL
same,concentration at 2 h,[4],18800 ± 3020 ng/mL
same,concentration at 4 h,[4],7890 ± 2010 ng/mL
same,concentration at 8 h,[4],2920 ± 468 ng/mL
same,concentration at 12 h,[4],964 ± 248 ng/mL
same,concentration at 0.25 h,[5],6220 ± 623 ng/mL
same,concentration at 0.5 h,[5],12800 ± 1590 ng/mL
same,concentration at 1 h,[5],27000 ± 3530 ng/mL
same,concentration at 2 h,[5],20200 ± 1540 ng/mL
same,concentration at 4 h,[5],17100 ± 3470 ng/mL
same,concentration at 10 h,[5],4640 ± 318 ng/mL
same,concentration at 24 h,[5],143 ± 29.1 ng/mL
same,concentration at 36 h,[5],10.7 ± 2.46 ng/mL
same,concentration at 48 h,[5],10.6 ± 9.23 ng/mL
same,AUC at 24 h,"plasma, 1.5 mg/kg p.o. BID × 1 day, read-out: Plasma AUC at 24 hours, Average",27600 ng·h/mL
same,AUC at 24 h,"plasma, 2 mg/kg p.o. TID × 1 day, read-out: Plasma AUC at 24 hours, Average",41800 ng·h/mL
same,AUC at 24 h,"plasma, 3 mg/kg p.o. BID × 1 day, read-out: Plasma AUC at 24 hours, Average",60200 ng·h/mL
same,AUC at 24 h,"plasma, 6 mg/kg p.o. QD × 1 day, read-out: Plasma AUC at 24 hours, Average",85100 ng·h/mL
same,AUC at 24 h,"plasma, 10 mg/kg p.o. BID × 1 day, read-out: Plasma AUC at 24 hours, Average",224000 ng·h/mL
same,concentration at 1 h,[6],164 ± 31.1 ng/g
same,concentration at 4 h,[6],552 ± 24.7 ng/g
same,concentration at 10 h,[6],246 ± 46.4 ng/g
same,concentration at 24 h,[6],28.3 ± 21.8 ng/g
same,concentration at 48 h,[6],5.63 ng/g
same,concentration at 1 h,[7],617 ± 49.7 ng/g
same,concentration at 4 h,[7],905 ± 48.2 ng/g
same,concentration at 10 h,[7],667 ± 154 ng/g
same,concentration at 24 h,[7],12 ± 2.59 ng/g
same,concentration at 0.25 h,[8],197 ± 15.3 ng/g
same,concentration at 0.5 h,[8],289 ± 31.1 ng/g
same,concentration at 1 h,[8],581 ± 107 ng/g
same,concentration at 2 h,[8],1230 ± 452 ng/g
same,concentration at 4 h,[8],1060 ± 233 ng/g
same,concentration at 10 h,[8],630 ± 39.9 ng/g
same,concentration at 24 h,[8],24.7 ± 7.5 ng/g
same,concentration at 48 h,[8],7.94 ng/g
same,concentration at 1 h,[9],882 ± 157 ng/g
same,concentration at 4 h,[9],2070 ± 259 ng/g
same,concentration at 10 h,[9],1320 ± 333 ng/g
same,concentration at 24 h,[9],89.1 ± 25.7 ng/g
same,concentration at 48 h,[9],24.2 ng/g
same,concentration at 1 h,[10],3500 ± 219 ng/g
same,concentration at 4 h,[10],4160 ± 413 ng/g
same,concentration at 10 h,[10],2060 ± 207 ng/g
same,concentration at 24 h,[10],624 ± 438 ng/g
same,concentration at 48 h,[10],81.6 ng/g
same,AUC at 24 h,"tumor, 1.5 mg/kg p.o. BID × 1 day, read-out: Tumor AUC at 24 hours, Average",5750 ng·h/mL
same,AUC at 24 h,"tumor, 2 mg/kg p.o. TID × 1 day, read-out: Tumor AUC at 24 hours, Average",11900 ng·h/mL
same,AUC at 24 h,"tumor, 3 mg/kg p.o. BID × 1 day, read-out: Tumor AUC at 24 hours, Average",13300 ng·h/mL
same,AUC at 24 h,"tumor, 6 mg/kg p.o. QD × 1 day, read-out: Tumor AUC at 24 hours, Average",25800 ng·h/mL
same,AUC at 24 h,"tumor, 10 mg/kg p.o. BID × 1 day, read-out: Tumor AUC at 24 hours, Average",56700 ng·h/mL
